Laboratory results taken from PMC10892984, “Novel Antineoplastic Inducers of Mitochondrial Apoptosis in Human Cancer Cells” (Molecules, 2024).

What was measured:
K-562 = settings: for GI50 / CC50: Homo sapiens, K562, 48 h; for CC50: read-out: LC50; for TGI: K-562, leukemia, mutant p53, 48 h
EKVX [1] = assay: cells; settings: Homo sapiens, 48 h, read-out: LC50
EKVX [2] = settings: non-small-cell lung cancer, mutant p53, 48 h
A498 = settings: for TGI: A498, renal cancer, wild-type p53, 48 h; for GI50 / CC50: Homo sapiens, A498, 48 h; for CC50: read-out: LC50
U251 = settings: for GI50 / CC50: Homo sapiens, U-251, 48 h; for CC50: read-out: LC50; for TGI: U251, CNS cancer (brain tumor), mutant p53, 48 h
SR = settings: for GI50 / CC50: Homo sapiens, 48 h; for CC50: read-out: LC50; for TGI: leukemia, wild-type p53, 48 h
NCI/ADR-RES = settings: for GI50 / CC50: Homo sapiens, 48 h; for CC50: read-out: LC50; for TGI: ovarian cancer, mutant p53, 48 h
SF-268 = settings: for GI50 / CC50: Homo sapiens, SF-268, 48 h; for CC50: read-out: LC50; for TGI: SF-268, CNS cancer (brain tumor), mutant p53, 48 h
HOP-92 = assay type: cell-based; settings: HOP-92, non-small-cell lung cancer, mutant p53, 48 h
[3] = Storage stability of the solid substance (1H-NMR after storage); assay type: physicochemical; settings: over six years at +0–4 °C in the refrigerator
Method: The specimen of compound 3, which was synthesized on Saturday, 27 May 2017, was investigated using proton NMR (Figure 13) on Wednesday, 23 August 2023, after over six years of storage at +0–4 °C in the refrigerator. The specimen was newly dried over CaCl2 in vacuo for 19 h. […]

[4] = Cytotoxicity (CellTiter 96 AQueous One, MTS); assay type: cell-based; settings: human; PBM cells
Method: (§1) The cytotoxicity and human immunodeficiency virus type 1 (HIV-1) strain LAI replication assays were performed in freshly explanted primary human peripheral blood mononuclear cells (PBM cells) according to published procedures. The assays were conducted at least in triplicate and treated statistically (if possible). HIV-1LAI (= HIV-1BRU = LAV-1) was assayed in primary human peripheral blood lymphocyte (PBL) cells in the presence of a drug being evaluated. The parameter for antiviral activity was a reduction in reverse transcriptase (RT) activity in the cell supernatant after Triton X–100-mediated lysis of released virions, as measured using [5α-^3H]dTTP (5α-tritiated thymidine 5′-triphosphate) incorporation into poly(rA)•poly(dT) directed by the primed RNA template poly(rA)•oligo(dT). […] Cytotoxicity on PBL and the other cells (CCRF−CEM, Vero) exerted by the test compounds was determined as described by Stuyver et al. by application of the CellTiter 96® AQueous One Solution Cell Proliferation Assay (Promega Corp., Madison, WI, USA). Briefly, the phenazine ethosulfate (PES)-coupled reduction of the tetrazolium salt 3-(4,5-dimethylthiazol-2-yl)-5-(3-carboxymethoxyphenyl)-2-(4-sulfophenyl)-2H-tetrazolium (MTS) to a purple, water-soluble formazan by living, undamaged cells was measured.

[5] = Cytotoxicity (CellTiter 96 AQueous One, MTS); assay type: cell-based, African green monkey (grivet) Chlorocebus aethiops; settings: African green monkey (Chlorocebus aethiops), Vero cells
Method: as §1

[6] = Cytotoxicity (CellTiter 96 AQueous One, MTS); assay type: cell-based, human; settings: human; CCRF−CEM cells
Method: (§2) The cytotoxicity and human immunodeficiency virus type 1 (HIV-1) strain LAI replication assays were performed in freshly explanted primary human peripheral blood mononuclear cells (PBM cells) according to published procedures. The assays were conducted at least in triplicate and treated statistically (if possible). HIV-1LAI (= HIV-1BRU = LAV-1) was assayed in primary human peripheral blood lymphocyte (PBL) cells in the presence of a drug being evaluated. The parameter for antiviral activity was a reduction in reverse transcriptase (RT) activity in the cell supernatant after Triton X–100-mediated lysis of released virions, as measured using [5α-^3H]dTTP (5α-tritiated thymidine 5′-triphosphate) incorporation into poly(rA)•poly(dT) directed by the primed RNA template poly(rA)•oligo(dT). […] The detailed assay methodology was reported by Schinazi et al. as based on an older assay system of Spira et al.. The experiments were conducted in triplicate and treated statistically using regression curve analysis (r^2 coefficient of determination). The RT inhibitor AZT (zidovudine, 3′-azido-3′-deoxythymidine; RETROVIR™) served as a positive control. Cytotoxicity on PBL and the other cells (CCRF−CEM, Vero) exerted by the test compounds was determined as described by Stuyver et al. by application of the CellTiter 96® AQueous One Solution Cell Proliferation Assay (Promega Corp., Madison, WI, USA). Briefly, the phenazine ethosulfate (PES)-coupled reduction of the tetrazolium salt 3-(4,5-dimethylthiazol-2-yl)-5-(3-carboxymethoxyphenyl)-2-(4-sulfophenyl)-2H-tetrazolium (MTS) to a purple, water-soluble formazan by living, undamaged cells was measured.

CCRF−CEM cells = assay: Cytotoxicity (CellTiter 96 AQueous One, MTS); assay type: cell-based, human; settings: Homo sapiens, 1.0 µM, read-out: CCRF–CEM growth inhibition at fixed 1.0 µM concentration
Method: as §2

[7] = test system: p21^Waf1/p21^Cip1, cyclin D1, Bax; assay: Expression of p53-regulated protein factors in cancer cells (data not shown); assay type: cell-based; settings: mCRPC cells, multiple myeloma U266 cells, plasmacytoma RPMI-8226 cells

| SMILES | GI50 (K-562) | CC50 (K-562) | TGI (K-562) | TGI (EKVX [2]) | TGI (A498) | GI50 (A498) | CC50 (A498) | GI50 (U251) | CC50 (U251) | TGI (U251) | GI50 (SR) | CC50 (SR) | TGI (SR) | GI50 (NCI/ADR-RES) | CC50 (NCI/ADR-RES) | TGI (NCI/ADR-RES) | GI50 (SF-268) | CC50 (SF-268) | TGI (SF-268) | TGI (HOP-92) | also measured |
| --- | --- | --- | --- | --- | --- | --- | --- | --- | --- | --- | --- | --- | --- | --- | --- | --- | --- | --- | --- | --- | --- |
| COc1cc2c(c(OC)c1OC)-c1ccc(NNC(N)=S)c(=O)cc1C(NC(C)=O)CC2 [Compound 2, N-[(aS,7S)-10-(2-carbamothioylhydrazinyl)-1,2,3-trimethoxy-9-oxo-5,6,7,9-tetrahydrobenzo[a]heptalen-7-yl]acetamide monohydrate × ⅔ (ethyl acetate)] | 0.362 µM | > 100 µM | > 100 µM | > 100 µM | > 100 µM | 2.09 µM | > 100 µM | 0.479 µM | > 100 µM | > 100 µM | 0.279 µM | > 100 µM | > 100 µM | 25.3 µM | > 100 µM | > 100 µM | 0.581 µM | > 100 µM | > 100 µM | – | CC50 (EKVX [1]): > 100 µM |
| COc1cc2c(c(OC)c1OC)-c1ccc(NNC(=S)N(Cc3cccc(C[N+](Cc4cccc(CNC56CC7CC(CC(C7)C5)C6)c4)(Cc4cccc(CNC56CC7CC(CC(C7)C5)C6)c4)Cc4cccc(CN(C(=S)NNc5ccc6c(cc5=O)C(NC(C)=O)CCc5cc(OC)c(OC)c(OC)c5-6)C56CC7CC(CC(C7)C5)C6)c4)c3)C34CC5CC(CC(C5)C3)C4)c(=O)cc1C(NC(C)=O)CC2 [Compound 3, [(bis{3-[(tricyclo[3.3.1.1^3,7]decan-1-ylamino)methyl]benzyl}ammonio)bis(methanediylbenzene-3,1-diylmethanediyl)]di-2-[(aS,7S)-7-(acetylamino)-1,2,3-trimethoxy-9-oxo-5,6,7,9-tetrahydrobenzo[a]heptalen-10-yl]-N-(tricyclo[3.3.1.1^3,7]decan-1-yl)hydrazinecarbothioamide chloride pentahydrate] | – | – | – | 8.46 µM | 3.28 µM | – | – | – | – | – | – | – | – | – | – | 12.5 µM | – | – | 6.54 µM | 4.08 µM | stability on storage (1H-NMR) [3]: very pure even after six years storage |
| c1cc(CNC23CC4CC(CC(C4)C2)C3)cc(C[N+](Cc2cccc(CNC34CC5CC(CC(C5)C3)C4)c2)(Cc2cccc(CNC34CC5CC(CC(C5)C3)C4)c2)Cc2cccc(CNC34CC5CC(CC(C5)C3)C4)c2)c1 (stereo not drawn) [Compound 1, tetrakis{3-[(tricyclo[3.3.1.1^3,7]decan-1-ammonio)methyl]benzyl}ammonium pentachloride] | 1.46 µM | > 50 µM | 36.2 µM | – | 7.05 µM | 1.19 µM | 21.2 µM | 1.12 µM | 8.79 µM | 2.69 µM | 1.49 µM | > 50 µM | > 50 µM | 1.44 µM | > 50 µM | 4.55 µM | 1.53 µM | 30.8 µM | 5.41 µM | 3.06 µM | GI50 (HOP-92; Homo sapiens): 1.14 µM; CC50 (HOP-92; Homo sapiens, read-out: LC50 (the source's name)): 12.6 µM; CC50 [4]: 2.2 µM; CC50 [5]: 1.8 µM; CC50 [6]: < 1 µM; inhibition at 1 µM (CCRF−CEM cells): 60%; cyclin D1 protein factor [7]: downregulated; expression of cyclin-dependent kinase inhibitor p21^Waf1/p21^Cip1 [7]: induced the expression; pro-apoptotic factor Bax expression [7]: increased |
